What was measured:
[1] = atypical dozing in the rat-8h-sleep-EEG; assay type: in vivo; conditions: 10 mg/kg p.o.
[2] = aggression test: social interactions in male mice in aggression-evoking social encounters; assay type: in vivo, mouse; conditions: 0.3 mg/kg p.o. (acute administration)
Description: The compounds of formula I promote social interactions after acute and chronic administration of 0.3 to 10 mg/kg p.o. in male mice in aggression-evoking social encounters [A. K. Dixon, Triangle 21 (1982) 95-105; M. Krsiak, Brit. J. Pharmacol. 55 (1975) 141-150]. […] M. Y. Spiegelstein, A. Levy, Elsevier, Amsterdam (1982) 39-55].

[3] = 8h-sleep-EEG: sleep phases in the sleep/wake cycle in the rat; assay type: in vivo; conditions: 10 mg/kg p.o.; rat 8h-sleep-EEG
Description: Further, the compounds of formula I modify the sleep phases in the sleep/wake cycle in the rat after administration of 3 to 30 mg/kg p.o. [H. Kleinlogel, EEG in Drug Research, Ed. H. Hermann, Gustav Fischer Verlag, Stuttgart, New York, 75-88 (1982)]. In the 8h-EEG, the slow wave phase (SWS) is increased, whereas the spindle phase and the paradoxical sleep phase (PS) are reduced. In Hjorth, parameters are the mean EEG amplitude (CA) and the complexity (CCF) increased.

[4] = target: T1, 5HT-1A-binding sites in the pig cortex (Sus scrofa, UniProt A0A4X1UTF5); assay: 5HT-1A-binding affinity test, binding of 3H-8-hydroxy-2-(di-n-propylamino)-tetraline (3H-PAT)
T1 construct: from tissue; host or cells: pig cortex
T1 sequence (A0A4X1UTF5 1-422): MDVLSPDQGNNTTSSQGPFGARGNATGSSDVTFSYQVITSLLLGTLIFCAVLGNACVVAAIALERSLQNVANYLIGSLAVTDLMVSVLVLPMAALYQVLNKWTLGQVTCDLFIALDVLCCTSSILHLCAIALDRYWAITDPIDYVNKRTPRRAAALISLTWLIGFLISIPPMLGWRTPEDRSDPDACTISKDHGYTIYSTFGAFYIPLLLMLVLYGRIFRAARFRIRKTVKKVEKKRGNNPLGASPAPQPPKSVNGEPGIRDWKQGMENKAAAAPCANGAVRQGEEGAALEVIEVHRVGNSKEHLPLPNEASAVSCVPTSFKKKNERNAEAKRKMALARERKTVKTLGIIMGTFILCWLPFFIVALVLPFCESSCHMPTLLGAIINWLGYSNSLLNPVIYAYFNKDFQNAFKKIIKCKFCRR

[5] = reference antidepressants, A. K. Dixon 1982; cited from earlier work
[6] = reference antischizophrenics; Sayers and Kleinlogel 1974; cited from earlier work
[7] = characteristic for antidepressants; H. Kleinlogel, page 83; cited from earlier work

Compound: COc1ccc(Cl)cc1C(=O)NCCN1CCN(c2nc(C(C)(C)C)cs2)CC1 [Example 8, 5-Chloro-2-methoxy-N-(2-(4-(4-(1,1-dimethylethyl)-2-thiazolyl)-1-piperazinyl)ethyl)-benzamide]
- atypical dozing [1]: shows atypical dozing
- promotion of social interactions [2]: promotes social interactions
- complexity (CCF) [3]: increased
- mean EEG amplitude (CA) [3]: increased
- paradoxial sleep phase (PS) [3]: reduces
- slow wave phase (SWS) [3]: increases
- spindle phase [3]: reduces
- IC50 [4]: 600 nM

Compound: CN(C)CCC=C1c2ccccc2CCc2ccccc21 [amitriptyline]
- promotion of social behaviour [5]: promote social behaviour

Compound: O=C1CC2(CCCC2)CC(=O)N1CCCCN1CCN(c2ncccn2)CC1 [buspirone]
- IC50 [4]: 10 to 400 nM

Compound: CN1CCN(C2=Nc3cc(Cl)ccc3Nc3ccccc32)CC1 [clozapine]
- atypical dozing characteristic for antischizophrenics [6]: atypical dozing characteristic

Compound: CNCCCN1c2ccccc2CCc2ccccc21 [desipramine]
- decrease of paradoxical sleep phase [7]: decrease of paradoxical sleep phase

Compound: CN(C)CCN1C(=O)c2ccccc2N(C)c2ccccc21 [dibenzepine]
- decrease of paradoxical sleep phase [7]: decrease of paradoxical sleep phase

Compound: O=C(CCCN1CCC(O)(c2ccc(Cl)cc2)CC1)c1ccc(F)cc1 [haloperidol]
- atypical dozing characteristic for antischizophrenics [6]: atypical dozing characteristic

Compound: CN(C)CCCN1c2ccccc2CCc2ccccc21 [imipramine]
- decrease of paradoxical sleep phase [7]: decrease of paradoxical sleep phase
- promotion of social behaviour [5]: promote social behaviour

Compound: CN1CCN2c3ccccc3Cc3ccccc3C2C1 (stereo not drawn) [mianserine]
- decrease of paradoxical sleep phase [7]: decrease of paradoxical sleep phase

Compound: CN1Cc2c(N)cccc2C(c2ccccc2)C1 (stereo not drawn) [nomifensine]
- decrease of paradoxical sleep phase [7]: decrease of paradoxical sleep phase

Reference: US4737500A, “1-substituted-4-(thiazolyl-2-)-piperazines, -piperidines and -tetrahydropyridines useful as anxiolytic, psychogeriatric, antidepressant and antischizophrenic agents” (priority 1985, dated 1988)
